# Experimental data from US20260226048A1, “MULTI-CYCLIC IRAK AND FLT3 INHIBITING COMPOUNDS AND USES THEREOF” (CHILDREN'S HOSPITAL MEDICAL CENTER, priority 2023, published 2026).
# Like-named read-outs stand apart in the source and are kept apart here.
# Experiments:
# MOLM14 F691L cells = experiment: MOLM14 F691L cell viability assay (Cell Titer Glo); type: cell-based; details: Homo sapiens, MOLM-14; cell viability, Cell Titer Glo, 48 hours; read-out: MOLM14 F691L IC50
# How it was run: (§1)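 MOLM14 cells with FLT3 D835Y or F691L kinase-domain resistance mutations seeded at 1000 cells/well and exposed to compound for 48 h under standard incubator conditions. Viability read by CellTiter-Glo luminescence after 15 min at room temperature.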
# IRAK4 = biological target: T1, IRAK4 (Homo sapiens, UniProt Q9NWZ3); experiment: RBC HotSpot Kinase Assay, IRAK4; type: biochemical; set-up: purchased Reaction Biology (RBC HotSpot); details: isolated kinase enzyme, 33P-ATP, P81 filter-binding
# T1 sequence (Q9NWZ3 1-460): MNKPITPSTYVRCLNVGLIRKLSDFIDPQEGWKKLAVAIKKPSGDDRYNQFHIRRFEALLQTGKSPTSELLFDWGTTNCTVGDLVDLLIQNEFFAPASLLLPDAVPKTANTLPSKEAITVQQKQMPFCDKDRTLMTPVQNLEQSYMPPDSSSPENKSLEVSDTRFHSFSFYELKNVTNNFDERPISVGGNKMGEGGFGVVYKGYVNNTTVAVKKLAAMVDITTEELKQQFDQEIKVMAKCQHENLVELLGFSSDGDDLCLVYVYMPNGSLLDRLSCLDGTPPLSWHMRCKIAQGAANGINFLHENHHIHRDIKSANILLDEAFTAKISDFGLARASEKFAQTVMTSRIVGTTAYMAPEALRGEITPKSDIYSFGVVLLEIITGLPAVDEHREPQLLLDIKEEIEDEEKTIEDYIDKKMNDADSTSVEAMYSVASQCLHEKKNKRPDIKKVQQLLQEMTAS
# How it was run: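 Radiometric filter-binding activity assay with isolated recombinant kinase (construct may be truncated or catalytic domain only) in 20 mM Hepes pH 7.5, 10 mM MgCl2, 1 mM EGTA, 2 mM DTT, 1% DMSO. Compound preincubated 20 min with kinase/substrate; reaction started with 33P-ATP, run 2 h at room temperature.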
# IRAK1 = biological target: T2, IRAK1 (Homo sapiens, UniProt P51617); experiment: RBC HotSpot Kinase Assay, IRAK1; type: biochemical; details: isolated kinase enzyme, 33P-ATP, P81 filter-binding
# T2 construct: purchased Reaction Biology (RBC HotSpot)
# How it was run: (§2)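 Radiometric HotSpot assay of catalytic activity with isolated recombinant kinase, possibly truncated or kinase domain only. Buffer: 20 mM Hepes pH 7.5, 10 mM MgCl2, 1 mM EGTA, 0.01% Brij35, 0.02 mg/ml BSA, 0.1 mM Na3VO4, 2 mM DTT, 1% DMSO, with cofactors specific to each kinase.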
# THP1 cells (FLT3 WT) = experiment: Combination drug screening with venetoclax in THP1 cells (Cell Titre Glo, 10 × 10); type: cell-based; details: for Excess HSA (sum excess HSA score, combination with venetoclax): 10 × 10 dataset, Cell Titre Glo at 48 hours, optimal of 4 dose combinations, negative = synergy; for Concentration needed to decrease the 312.5 nM Venetoclax response to <20%: Cell Titer Glo at 48 hours
# Procedure: (§3) These assays were performed using the Cell Titre Glo assay, measured at 48 hours.
# (§4) A smaller concentration indicates higher potency to synergize with Venetoclax.
# MOLM14 D835Y cells = experiment: MOLM14 D835Y cell viability assay (Cell Titer Glo); type: cell-based; details: cell viability, Cell Titer Glo, 48 hours, read-out: MOLM14 D835Y IC50
# How it was run: as §1
# FLT3 = biological target: T3, FLT3 (Homo sapiens, UniProt P36888); experiment: RBC HotSpot Kinase Assay, FLT3; type: biochemical; set-up: purchased Reaction Biology (RBC HotSpot); details: isolated kinase enzyme, 33P-ATP, P81 filter-binding
# T3 sequence (P36888 27-993): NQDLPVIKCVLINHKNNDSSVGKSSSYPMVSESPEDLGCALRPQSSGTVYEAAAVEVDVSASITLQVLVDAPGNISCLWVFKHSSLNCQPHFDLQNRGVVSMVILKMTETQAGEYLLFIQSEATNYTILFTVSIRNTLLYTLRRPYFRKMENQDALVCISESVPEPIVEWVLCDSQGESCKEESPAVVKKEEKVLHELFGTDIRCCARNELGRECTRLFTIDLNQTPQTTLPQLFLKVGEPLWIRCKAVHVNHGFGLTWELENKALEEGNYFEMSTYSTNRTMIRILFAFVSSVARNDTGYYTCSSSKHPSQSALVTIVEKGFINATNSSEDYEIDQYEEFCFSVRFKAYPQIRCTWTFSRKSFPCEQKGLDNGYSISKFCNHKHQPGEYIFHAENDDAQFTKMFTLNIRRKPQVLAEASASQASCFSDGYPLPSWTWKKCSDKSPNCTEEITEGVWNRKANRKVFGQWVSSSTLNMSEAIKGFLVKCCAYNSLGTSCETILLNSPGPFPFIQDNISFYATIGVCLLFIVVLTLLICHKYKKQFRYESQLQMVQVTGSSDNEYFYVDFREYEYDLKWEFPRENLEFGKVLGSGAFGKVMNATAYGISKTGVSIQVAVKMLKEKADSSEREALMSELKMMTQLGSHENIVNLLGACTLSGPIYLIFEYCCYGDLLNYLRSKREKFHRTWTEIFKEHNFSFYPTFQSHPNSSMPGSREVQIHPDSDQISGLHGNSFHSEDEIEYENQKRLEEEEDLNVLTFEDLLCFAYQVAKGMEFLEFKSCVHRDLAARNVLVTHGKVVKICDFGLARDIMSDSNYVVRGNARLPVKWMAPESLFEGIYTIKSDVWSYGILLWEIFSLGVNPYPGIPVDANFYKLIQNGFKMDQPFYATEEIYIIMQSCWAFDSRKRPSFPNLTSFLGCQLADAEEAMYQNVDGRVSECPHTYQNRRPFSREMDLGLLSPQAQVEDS
# How it was run: as §2
# [1] = test system: MOLM14-D835Y cells (FLT3-ITD (D835Y) mutant); experiment: Combination drug screening with venetoclax in MOLM14 (D835Y) cells (Cell Titre Glo, 10 × 10); type: cell-based; set-up: Excess HSA (sum excess HSA score, combination with venetoclax): scale not given here; details: for Excess HSA (sum excess HSA score, combination with venetoclax): 10 × 10 dataset, Cell Titre Glo at 48 hours, optimal of 4 dose combinations, negative = synergy; for Concentration of a compound of the disclosure, or gilteritinib, needed to decrease the 62.5 nM Ven response to <10% in MOLM14(D835Y) cells: combination with 62.5 nM Venetoclax, Cell Titer Glo, 48 hours, response <10%
# Procedure: as §3, §4
# [2] = test system: NF-κB-inducible SEAP reporter in THP-1-Blue NF-κB cells; experiment: NF-kB SEAP reporter assay in THP-1-Blue NF-κB cells; type: cell-based; details: 24 hours
# Procedure: THP-1-Blue NF-κB cells (InvivoGen) carrying a stable integrated NF-κB-inducible secreted embryonic alkaline phosphatase (SEAP) reporter construct were plated at a concentration of 1×10^5 cells per well. The cells were stimulated with Pam3CSK4 (1 ng/mL) or hIL1B (1 ng/mL). After 10-20 minutes, the cells were then treated with vehicle (DMSO) or serial dilutions of the test compounds (10 doses tested for each test compound, with a 1:10 dilution series starting at 1 μM or 3 μM) with a final volume of 200 μL for 24 hours at 37° C. After 24 hours, the cells were centrifuged and 20 μL supernatant was incubated with 180 μL QUANTI-Blue reagent at 37° C. for 30-60 minutes. The levels of NF-κB-induced was measured in a microplate reader at 620 nm.
# T2 sequence (P51617 whole entry): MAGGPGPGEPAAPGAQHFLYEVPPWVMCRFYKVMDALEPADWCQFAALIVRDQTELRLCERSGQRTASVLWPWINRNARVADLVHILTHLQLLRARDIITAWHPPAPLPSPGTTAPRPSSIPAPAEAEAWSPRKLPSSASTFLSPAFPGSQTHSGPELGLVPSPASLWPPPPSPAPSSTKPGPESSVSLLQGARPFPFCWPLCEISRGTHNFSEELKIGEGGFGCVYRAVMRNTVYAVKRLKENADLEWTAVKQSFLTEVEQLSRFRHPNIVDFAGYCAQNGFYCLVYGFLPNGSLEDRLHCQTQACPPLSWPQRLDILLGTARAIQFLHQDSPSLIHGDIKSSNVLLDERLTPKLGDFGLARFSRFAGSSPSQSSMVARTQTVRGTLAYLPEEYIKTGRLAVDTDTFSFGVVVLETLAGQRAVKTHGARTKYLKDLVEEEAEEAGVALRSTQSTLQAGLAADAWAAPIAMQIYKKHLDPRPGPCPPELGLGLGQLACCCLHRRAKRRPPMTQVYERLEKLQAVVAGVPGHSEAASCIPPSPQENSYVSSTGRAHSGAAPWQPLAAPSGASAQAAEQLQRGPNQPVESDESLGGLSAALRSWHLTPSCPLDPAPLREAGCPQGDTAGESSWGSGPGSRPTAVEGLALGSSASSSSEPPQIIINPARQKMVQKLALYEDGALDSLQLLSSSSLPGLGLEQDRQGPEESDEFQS
Structure (SMILES),IC50 (MOLM14 F691L cells),IC50 (IRAK4),IC50 (IRAK1),"Excess HSA (sum excess HSA score, combination with venetoclax) (THP1 cells (FLT3 WT))",Concentration needed to decrease the 312.5 nM Venetoclax response to <20% (THP1 cells (FLT3 WT)),"IC50 (MOLM14 D835Y cells; Homo sapiens, MOLM-14, 48 h)",IC50 (FLT3),"Excess HSA (sum excess HSA score, combination with venetoclax) [1]","Concentration of a compound of the disclosure, or gilteritinib, needed to decrease the 62.5 nM Ven response to <10% in MOLM14(D835Y) cells [1]",IC50 (MOLM14 D835Y cells),"IC50 ([2]; THP-1-Blue NF-κB cells stimulated with Pam3CSK4 (1 ng/mL), read-out: NF-κB Pam3SCK4 IC50)","IC50 ([2]; THP-1-Blue NF-κB cells stimulated with hIL1B (1 ng/mL), read-out: NF-κB IL1B IC50)"
"COc1cc2ncc(-c3nc(N[C@H]4CNCC[C@@H]4F)ncc3F)n2nc1C1CCC1 [Compound 54a, 4-(6-cyclobutyl-7-methoxyimidazo[1,2-b]pyridazin-3-yl)-5-fluoro-N-((3S,4S)-4-fluoropiperidin-3-yl)pyrimidin-2-amine]",7 nM,< 0.5 nM,< 0.5 nM,−807.2,5 µM,1 nM,< 0.5 nM,−1490,1.6 nM,–,–,–
"COc1cc2ncc(-c3ccnc(N[C@H]4CNCC[C@@H]4F)n3)n2nc1C1CC2(CCC2)C1 [Compound 74a, N-((3S,4S)-4-fluoropiperidin-3-yl)-4-(7-methoxy-6-(spiro[3.3]heptan-2-yl)imidazo[1,2-b]pyridazin-3-yl)pyrimidin-2-amine]",1000 nM,26 nM,91 nM,−456.1,5 µM,80 nM,< 0.5 nM,−1335,312 nM,–,–,–
"CC(O)(c1ccc2ncc(-c3nc(N[C@H]4CNCC[C@@H]4F)ncc3F)n2c1)C(F)(F)F (single isomer, unassigned) [Compound 35a]",–,0.7 nM,0.9 nM,−937.7,1.25 µM,–,< 0.5 nM,−1543,25 nM,26 nM,–,–
"COc1cc2ncc(-c3ccnc(N[C@H]4CNCC[C@@H]4F)n3)n2nc1C1CC(C)(C)C1 [Compound 82a, 4-(6-(3,3-dimethylcyclobutyl)-7-methoxyimidazo[1,2-b]pyridazin-3-yl)-N-((3S,4S)-4-fluoropiperidin-3-yl)pyrimidin-2-amine]",1130 nM,45 nM,174 nM,−1292.2960,5 µM,127 nM,< 0.5 nM,−1679,39 nM,–,–,–
"COc1cc2ncc(-c3nc(N[C@H]4CNCC[C@@H]4F)ncc3F)n2nc1C1CC(C)(C)C1 [Compound 57a, 4-(6-(3,3-dimethylcyclobutyl)-7-methoxyimidazo[1,2-b]pyridazin-3-yl)-5-fluoro-N-((3S,4S)-4-fluoropiperidin-3-yl)pyrimidin-2-amine]",90 nM,1 nM,2 nM,−1308.2250,–,11 nM,–,−1762,–,–,157 nM,167 nM
